The target of one data set is T1, PD-L1 (Homo sapiens, UniProt Q9NZQ7).
T1 construct: expressed in transfected cells; host or cells: A549 cells stably transduced with hPD-L1 by lentivirus (A549-hPDL1)
Nature of the data set: Competitive cell-binding experiment against [^68Ga]BMSH. The following applies: A549-hPDL1 cells, 60 min.

Data set [1] concerns A549-hPDL1 and A549 tumors. Nature of the data set: Micro-PET imaging, A549-hPDL1 versus A549 tumors. Format: in vivo, BALB/c nude mice. The note with it: 60 min post-injection. Here is the method:
For biodistribution and micro-PET imaging studies of [^68Ga]BMSH and [^18F]FDG, male BALB/c nude mice were implanted subcutaneously with 1–5 × 10^6 A549-hPDL1 cells and A549 cells behind right armpit. Mice were imaged or used in biodistribution studies when the tumor xenografts reached 5–10 mm in diameter. Dynamic micro-PET imaging studies were conducted in tumor-bearing nude mice (A549-hPDL1 and A549, n = 3 in each group) using the Madiclab PSA146 PET/CT/FMT instrument (Linyi, China). The images were reconstructed using a three-dimensional ordered-subset expectation maximum (OSEM) algorithm and were converted to the percentage of injected dose per gram of tissue (%ID/g) images. Tumor-bearing mice were intravenously injected with [^68Ga]BMSH (7.4 MBq/mouse) and [^18F]FDG (5.55 MBq/mouse), respectively. For the blocking experiment, the A549-hPDL1 tumor-bearing mice were co-injected with NOTA-BMSH (100 µg/mouse) and [^68Ga]BMSH. For data analysis, the regions of interest (ROIs) were manually drawn over the tumor and major organs on decay-corrected whole-body coronal images using PMOD software (version 4.3, PMOD Technologies Ltd., Zurich, Switzerland).

The IC50 is the concentration needed to halve the response being measured. A low value points to greater potency.

T1 sequence (Q9NZQ7 19-290): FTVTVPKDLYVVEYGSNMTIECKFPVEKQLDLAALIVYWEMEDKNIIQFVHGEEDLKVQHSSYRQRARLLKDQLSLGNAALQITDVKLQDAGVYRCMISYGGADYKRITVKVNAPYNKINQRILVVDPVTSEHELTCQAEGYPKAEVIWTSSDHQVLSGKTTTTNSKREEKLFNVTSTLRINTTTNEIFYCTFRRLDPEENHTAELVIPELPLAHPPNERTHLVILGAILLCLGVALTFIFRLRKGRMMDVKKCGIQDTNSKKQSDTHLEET

`CC(=O)NC1C(NC(=O)[C@H](CCC(=O)N[C@@H](CCC(=O)O)C(=O)N[C@@H](CC(=O)O)C(=O)NCCOCCOCC(=O)NCCNC(=O)[C@@H](CO)CNc2cc(C)c(OCc3cccc(-c4ccc5c(c4)OCCO5)c3C)cc2OCc2cccc(C#N)c2)NC(=O)COCCOCCNC(=O)CN2CCN(CC(=O)O)CCN(CC(=O)O)CC2)OC(CO)C(O)C1O` (some centres unmarked) [NOTA-BMSH]: the IC50 at PD-L1 came out at 449 nM. [^18F]FDG: the “A549-hPDL1 tumor/A549 tumor uptake ratio” value in data set [1] was found to be 1.08.

The record behind these values is paper PMC10610256, “Development and Preclinical Evaluation of [^68Ga]BMSH as a New Potent Positron Emission Tomography Tracer for Imaging Programmed Death-Ligand 1 Expression” (Pharmaceuticals, 2023).
